Laboratory results: patent US8871751B2, “Compositions and methods relating to nuclear hormone and steroid hormone receptors including inhibitors of estrogen receptor alpha-mediated gene expression and inhibition of breast cancer” (The Board of Trustees of the University of Illinois, priority 2008, dated 2014)

Assays:
[1] = target: T1, human ERα binding to flcERE (Homo sapiens, UniProt P03372); assay: FAMA: inhibition of ERα binding to flcERE; conditions: FAMA, binding to HRE, 5 concentrations 0.5-10 μM, sequential method; read-out: IC50 ERα
T1 construct: Full-length FLAG-tagged human ERα was expressed and purified as described previously (27); FLAG; made in house
T1 sequence (P03372 1-595): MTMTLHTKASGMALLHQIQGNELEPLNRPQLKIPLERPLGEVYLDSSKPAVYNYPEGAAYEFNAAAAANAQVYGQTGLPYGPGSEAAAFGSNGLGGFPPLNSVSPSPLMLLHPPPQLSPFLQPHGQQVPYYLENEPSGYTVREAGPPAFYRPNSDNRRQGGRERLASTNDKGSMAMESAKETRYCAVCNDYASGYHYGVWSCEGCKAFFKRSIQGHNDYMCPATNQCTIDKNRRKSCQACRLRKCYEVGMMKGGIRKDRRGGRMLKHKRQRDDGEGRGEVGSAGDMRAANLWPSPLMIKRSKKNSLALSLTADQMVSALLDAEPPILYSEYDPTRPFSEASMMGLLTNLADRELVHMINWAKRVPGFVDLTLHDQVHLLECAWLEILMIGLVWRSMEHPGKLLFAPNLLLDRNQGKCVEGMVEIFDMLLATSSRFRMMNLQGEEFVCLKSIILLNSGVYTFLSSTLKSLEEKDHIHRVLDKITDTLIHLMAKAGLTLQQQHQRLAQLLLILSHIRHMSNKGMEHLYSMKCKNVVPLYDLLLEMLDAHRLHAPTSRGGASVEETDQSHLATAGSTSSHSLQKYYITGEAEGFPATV
Description: Prior to screening, the 10 mM library stocks were diluted to produce replica libraries in 384-well plates containing each small molecule at 0.25 mM (in DMSO). In our initial studies we were concerned that forming the flcERE-ERα complex first and then adding the candidate small molecule inhibitors would miss small molecules that bind at the interface. We therefore screened using the “sequential” method in which the candidate small molecules were first incubated with ERα and followed by addition of the flcERE. The assay for binding of ERα to the flcERE is a modification of our earlier assay (27). Assays were carried out at room temperature in black wall 384-well microplates (Greiner/Bio-One) in a total volume of 10 μl in buffer containing 20 mM Tris pH 7.5, 10% glycerol, 0.2 mM EDTA, 2 mM DTT, 100 mM KCl, 0.5 ng/μl poly dl:dC, […] bovine serum albumin and 100 nM 17β-estradiol (E2). For high throughput screening, a master mix without ERα and probe was prepared at 4° C. The master mix was divided into 2 parts. ERα was added to one part to 5 nM in the final assays. 7 μl of the ERα-containing mix was then dispensed into each well of a 384-well plate on ice. 100 nl of the compounds being tested was then added using a pin-transporter (V & P Scientific, Inc, CA) to a final concentration of 2.5 μM. The samples were mixed using the pin-transporter and sedimented by centrifugation for 2 min. at 4° C. and incubated on ice for 10 min. The flcERE probe was added to the other aliquot of the mix to 1 nM. 3 μl of the mix containing the flcERE probe was added to each well containing ERα and the test compound. The samples were mixed using the pin-transporter, the plates were briefly centrifuged and incubated at room temperature for 10 min. and fluorescence anisotropy (FA) was measured using a BMG PheraStar (BMG Labtech) microplate reader (module: 485 520) with excitation at 485λ and emission at 520λ. To identify small molecules that were highly fluorescent, or quench fluorescence, fluorescence intensity was also measured.
(§1) Dose response curves for selected compounds were carried out as described for the HTS screen except that each well contained the indicated concentration of test compound. PR assays were carried out in the same buffer used for ERα assays and contained 1 nM flcPRE and 11 nM PR-B and 100 nM progesterone. The buffer used for AR was similar but also contained 5 μM ZnCl, 5 mM NaF, 0.6 μM CHAPS and 100 nM dihydrotestosterone. AR assays contained 1 nM flcARE and 50 nM full-length wild-type AR.

[2] = target: T2, human androgen receptor (AR) binding to flARE (Homo sapiens, UniProt P10275); assay: FAMA: inhibition of AR binding to flcARE; conditions: binding to HRE, 5 concentrations 0.5-10 μM, sequential method
T2 construct: AR assays contained 1 nM flcARE and 50 nM full-length wild-type AR; FLAG; made in house
T2 sequence (P10275 1-920): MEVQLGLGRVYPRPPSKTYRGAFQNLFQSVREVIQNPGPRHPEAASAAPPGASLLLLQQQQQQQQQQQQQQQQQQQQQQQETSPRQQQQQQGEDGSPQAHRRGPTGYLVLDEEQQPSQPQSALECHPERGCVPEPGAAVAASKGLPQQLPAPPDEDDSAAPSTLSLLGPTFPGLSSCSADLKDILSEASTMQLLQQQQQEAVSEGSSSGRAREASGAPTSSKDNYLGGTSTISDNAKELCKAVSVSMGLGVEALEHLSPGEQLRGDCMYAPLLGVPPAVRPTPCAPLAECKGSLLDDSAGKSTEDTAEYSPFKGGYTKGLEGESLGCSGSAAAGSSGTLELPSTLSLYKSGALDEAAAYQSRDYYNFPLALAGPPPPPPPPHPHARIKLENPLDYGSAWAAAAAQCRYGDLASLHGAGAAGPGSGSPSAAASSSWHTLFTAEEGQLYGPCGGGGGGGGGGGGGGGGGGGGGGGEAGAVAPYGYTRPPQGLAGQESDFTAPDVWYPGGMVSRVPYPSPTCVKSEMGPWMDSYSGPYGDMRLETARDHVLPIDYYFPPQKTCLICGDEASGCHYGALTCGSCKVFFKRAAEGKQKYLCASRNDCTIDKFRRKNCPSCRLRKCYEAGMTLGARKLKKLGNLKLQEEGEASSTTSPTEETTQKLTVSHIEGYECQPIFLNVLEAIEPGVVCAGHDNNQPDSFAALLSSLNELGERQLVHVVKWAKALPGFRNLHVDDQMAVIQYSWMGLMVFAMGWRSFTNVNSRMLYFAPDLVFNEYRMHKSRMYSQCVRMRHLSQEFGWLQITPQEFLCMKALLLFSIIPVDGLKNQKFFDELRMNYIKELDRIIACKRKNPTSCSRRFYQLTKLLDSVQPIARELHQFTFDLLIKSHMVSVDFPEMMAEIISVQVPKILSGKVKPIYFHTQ
Description: as §1
(§2) Specificity was evaluated in dose-response studies by quantitative FAMA using purified full-length human PR binding to a fluorescein-labeled progesterone/glucocorticoid response element (flPRE) and full-length human androgen receptor (AR) binding to a fluorescein-labeled androgen response element (flARE).

[3] = target: T3, human PR-B binding to flPRE (Homo sapiens, UniProt P06401); assay: FAMA: inhibition of PR binding to flcPRE; conditions: binding to HRE, 5 concentrations 0.5-10 μM, sequential method
T3 construct: FLAG; made in house
T3 sequence (P06401 1-933): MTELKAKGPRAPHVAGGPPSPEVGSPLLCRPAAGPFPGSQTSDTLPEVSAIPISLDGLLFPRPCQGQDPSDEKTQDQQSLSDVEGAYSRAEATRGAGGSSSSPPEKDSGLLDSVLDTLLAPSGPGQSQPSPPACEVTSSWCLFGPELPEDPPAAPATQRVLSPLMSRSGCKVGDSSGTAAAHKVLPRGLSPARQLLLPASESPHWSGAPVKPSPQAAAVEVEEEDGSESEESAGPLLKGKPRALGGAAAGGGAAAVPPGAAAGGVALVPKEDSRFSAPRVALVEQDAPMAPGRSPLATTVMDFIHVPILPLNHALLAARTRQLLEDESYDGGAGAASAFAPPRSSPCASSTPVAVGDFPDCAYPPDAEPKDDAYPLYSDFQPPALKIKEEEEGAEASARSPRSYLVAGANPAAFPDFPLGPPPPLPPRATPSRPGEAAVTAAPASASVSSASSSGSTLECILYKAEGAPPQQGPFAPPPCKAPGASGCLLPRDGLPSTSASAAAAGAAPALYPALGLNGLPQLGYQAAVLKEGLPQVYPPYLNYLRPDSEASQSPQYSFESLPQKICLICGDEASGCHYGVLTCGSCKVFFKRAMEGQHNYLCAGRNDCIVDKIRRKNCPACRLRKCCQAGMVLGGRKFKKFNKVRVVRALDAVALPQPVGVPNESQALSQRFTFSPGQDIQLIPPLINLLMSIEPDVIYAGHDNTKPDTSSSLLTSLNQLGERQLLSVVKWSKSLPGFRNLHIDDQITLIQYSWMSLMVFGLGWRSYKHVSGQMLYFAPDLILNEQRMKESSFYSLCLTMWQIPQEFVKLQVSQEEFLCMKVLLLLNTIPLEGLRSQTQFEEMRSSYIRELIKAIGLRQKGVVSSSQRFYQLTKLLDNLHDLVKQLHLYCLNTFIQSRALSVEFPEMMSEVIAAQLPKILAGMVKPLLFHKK
Description: as §1, §2

[4] = target: T4, ERα (Homo sapiens, UniProt P03372); assay: (ERE)3-luciferase reporter gene assay in T47D-KBluc cells; type: cell-based; parameters: Using a stably transfected breast cancer cell line that expresses endogenous ERα; endogenous in cells; host or cells: T47D-KBluc
T4 sequence (P03372 1-595): T1 sequence (P03372 1-595)
Description: The T47D-KBluc cells stably express an (ERE)3-luciferase reporter gene (38). […] Four days before E2 induction, the cells were switched to the above medium, with 10% 2× charcoal-dextran-treated calf serum instead of FBS. 200,000 cells/well were transferred to each well of a 24-well plate. After 24 h the indicated concentrations of the test compounds were added in DMSO and E2 was added to 20 pM. After 24 h cells were washed once in PBS, and 150 μl 1× Passive Lysis Buffer (Promega, Madison Wis.) was used to lyse the cells. Luciferase activity was determined using firefly luciferase reagents from Promega (Madison, Wis.).
Reporter Gene Assays. […] AR was assayed in stably transfected HeLa cells and GR was assayed in stably transfected T47D cells maintained as described above. Four days before each experiment the cells were switched to medium containing CD-treated serum as described above. The HeLaAR cells were plated at 100,000 cells/well and the T47D/A1-2 and T47D-KBluc cells were plated at 200,000 cells/well in 1 ml of their respective media in 24-well plates. After 24 hours the indicated concentrations of E2, dihydrotestosterone (DHT) or dexamethasone (Dex) and DMSO vehicle, with or without TPSF, were added to each well. After 24 hours, the cells were washed once in phosphate buffered saline and lysed using 100 μl of 1× Passive Lysis Buffer (Promega, Madison Wis.). Luciferase activity was determined using BrightGlo firefly luciferase reagent from Promega (Madison, Wis.).

Row | IC50 [1] [µM] | IC50 [2] [µM] | IC50 [3] [µM] | potency as ERα inhibitor relative to TPSF (less potent) [4] [fold] | IC50 ([4]; T47D (ERE)3-Luc cells, 24 h, FIG. 13, E2 concentration for 99676 not stated, read-out: IC50 for inhibition of ERα-mediated gene expression) [µM] | Compound
1 | 1 | 4 | 5 | – | – | CCN(CC)CCOc1ccc(Cl)cc1Cc1ccccc1 [Compound 9548]
2 | > 10 | > 10 | > 10 | – | – | CCCCCN(CCCCC)CCC(O)c1cccc2ccccc12 (centres unmarked) [Compound 9671]
3 | > 10 | > 10 | > 10 | – | – | [Cu].c1ccc2c(c1)C1=NC2=NC2=NC(=NC3=NC(=NC4=NC(=N1)c1ccccc14)c1ccccc13)c1ccccc12 [Compound 43628]
4 | 8 | > 10 | > 10 | – | – | CC1=NNC(=S)NCCCN2CCN(CCCNC(=S)NN=C(C)C=NNC(=S)NCCCN3CCN(CCCNC(=S)NN=C1)CC3)CC2 [Compound 91767]
5 | – | – | – | ~13 | 9 | Cn1c(=S)c2[nH]c(SCCCc3ccccc3)nc2n(C)c1=O [Compound 99676]
6 | 3.8 | > 10 | > 10 | – | – | O=C(O)c1cccc(N=Nc2c(S(=O)(=O)O)ccc3c2C(=O)c2ccccc2C3=O)c1O [Compound 125908]
7 | > 10 | > 10 | > 10 | – | – | N#CC(C#N)=CNCCN1CCN(C=C(C#N)C#N)CC1 [Compound 343040]
8 | > 10 | > 10 | > 10 | – | – | O=C(O)c1nn(-c2ccc(Cl)cc2)c2c1C(=O)c1ccccc1C2=O [Compound 360494]
9 | > 10 | > 10 | > 10 | – | – | CN1CCc2[nH]nc(-c3n[nH]c4c3CN(C)CC4)c2C1 [Compound 371847]

Row | Compound | IC50 [1] [µM] | IC50 [2] [µM] | IC50 [3] [µM] | potency as ERα inhibitor relative to TPSF (less potent) [4] [fold] | IC50 ([4]; T47D (ERE)3-Luc cells, 24 h, FIG. 13, E2 concentration for 99676 not stated, read-out: IC50 for inhibition of ERα-mediated gene expression) [µM]
10 | Nc1c(S(=O)(=O)O)cc(Nc2ccc(S(=O)(=O)O)c(Nc3nc(Cl)nc(Cl)n3)c2)c2c1C(=O)c1ccccc1C2=O [Compound 9545] | 0.7 | 3 | 3.8 | – | –
11 | O=C(Nc1cc[c]([Sb](=[O])([OH])[OH])cc1)c1ccccc1 [Compound 15596] | 5 | > 10 | > 10 | – | –
12 | O=C1NC(=S)NC(=O)C1=Cc1cccc2cc3ccccc3cc12 [Compound 90737] | 10 | > 10 | > 10 | – | –
